Key:
Assay in all cases: relative viability (nuclei count vs DMSO), 5 days (fraction); higher = more cells survive
[1] = compound: CC1CC(=O)N(C2=CN=C(N=C2N1C3CCCC3)NC4=C(C=C(C=C4)C(=O)NC5CCN(CC5)C)OC)C [NPK76-II-72-1] + CS(=O)(=O)N1CCN(Cc2cc3nc(-c4cccc5[nH]ncc45)nc(N4CCOCC4)c3s2)CC1 [Pictilisib] (partner 1 µM)
Summary of the method: (§1)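 Lung cancer cell lines were seeded in 1536-well plates and dosed by pin tool the next day, with either a single drug or a fixed anchor-drug dose combined with five library-drug doses (not always all listed) spaced in √10 steps. Five days later, one step fixed the cells and stained their nuclei (final 0.05% Triton X-100, 1% formaldehyde, 1 ug/ml Hoechst), and nuclei were counted on 4× images. Relative viability is the nuclei count in treated wells divided by the count in vehicle wells, and each value is the median of duplicate plates.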

[2] = compound: CC[C@@H]1C(=O)N(C)c2cnc(Nc3ccc(C(=O)NC4CCN(C)CC4)cc3OC)nc2N1C1CCCC1 [BI-2536] + N=C(N)NC(=N)NCCc1ccccc1 [Phenformin] (partner 250 µM)
Summary of the method: as §1

[3] = compound: CC1CC(=O)N(C2=CN=C(N=C2N1C3CCCC3)NC4=C(C=C(C=C4)C(=O)NC5CCN(CC5)C)OC)C [NPK76-II-72-1] + NC(=O)Nc1cc(-c2cccc(F)c2)sc1C(=O)N[C@H]1CCCNC1 [AZD7762] (partner 0.2 µM)
Summary of the method: as §1

[4] = compound: CC1CC(=O)N(C2=CN=C(N=C2N1C3CCCC3)NC4=C(C=C(C=C4)C(=O)NC5CCN(CC5)C)OC)C [NPK76-II-72-1] + CC(=O)Nc1cccc(-n2c(=O)n(C3CC3)c(=O)c3c(Nc4ccc(I)cc4F)n(C)c(=O)c(C)c32)c1 [Trametinib] (partner 0.02 µM)
Summary of the method: as §1

Row | Cell Line | relative viability ([1]; first compound 0.01 µM) | relative viability ([1]; first compound 0.03162 µM) | relative viability ([1]; first compound 0.1 µM) | relative viability ([1]; first compound 0.3162 µM) | relative viability ([1]; first compound 1 µM) | relative viability ([2]; first compound 0.01 µM) | relative viability ([2]; first compound 0.03162 µM) | relative viability ([2]; first compound 0.1 µM) | relative viability ([2]; first compound 0.3162 µM) | relative viability ([2]; first compound 1 µM) | relative viability ([3]; first compound 0.03162 µM) | relative viability ([3]; first compound 0.1 µM) | relative viability ([3]; first compound 0.3162 µM) | relative viability ([3]; first compound 1 µM) | relative viability ([4]; first compound 0.03162 µM) | relative viability ([4]; first compound 0.1 µM) | relative viability ([4]; first compound 0.3162 µM) | relative viability ([4]; first compound 1 µM) | relative viability ([3]; first compound 0.01 µM) | relative viability ([4]; first compound 0.01 µM)
1 | NCI-H1792 | 0.353 | 0.285 | 0.26 | 0.29 | 0.286 | 0.451 | 0.49 | 0.301 | 0.0773 | 0.0991 | 0.702 | 0.848 | 0.686 | 0.732 | 0.469 | 0.478 | 0.378 | 0.506 | – | –
2 | ChaGo-K-1 | 0.736 | 0.642 | 0.685 | 0.686 | 0.367 | 0.492 | 0.507 | 0.238 | 0.158 | 0.148 | 0.873 | 0.833 | 0.809 | 0.839 | 0.98 | 0.868 | 0.897 | 0.875 | 0.829 | 0.876
3 | LOU-NH91 | 0.501 | 0.507 | 0.46 | 0.502 | 0.597 | 0.706 | 0.662 | 0.583 | 0.273 | 0.252 | 0.744 | 0.723 | 0.675 | 0.798 | 0.751 | 0.777 | 0.739 | 0.829 | 0.728 | 0.76
4 | NCI-H2405 | 0.485 | 0.467 | 0.479 | 0.453 | 0.452 | 0.378 | 0.377 | 0.321 | 0.153 | 0.243 | 0.775 | 0.728 | 0.746 | 0.705 | 0.618 | 0.601 | 0.59 | 0.702 | 0.689 | 0.662
5 | LCLC-97TM1 | – | 0.251 | 0.168 | 0.173 | 0.207 | 0.43 | 0.432 | 0.366 | 0.137 | 0.154 | 0.404 | 0.27 | – | 0.298 | 0.208 | 0.181 | 0.215 | 0.209 | 0.298 | 0.203
6 | NCI-H596 | 0.401 | 0.338 | 0.396 | 0.368 | 0.429 | 0.729 | 0.737 | 0.917 | 0.358 | 0.245 | 1.12 | 1.27 | 1.15 | 1.1 | 0.787 | 0.776 | 0.82 | 0.803 | 1.13 | 0.764
7 | NCI-H727 | 0.396 | 0.428 | 0.385 | 0.418 | 0.319 | 0.529 | 0.527 | 0.386 | 0.319 | 0.313 | 0.67 | 0.545 | 0.537 | 0.558 | 0.392 | 0.341 | 0.394 | 0.395 | 0.466 | 0.352
8 | H3255 | 0.449 | 0.449 | 0.476 | 0.251 | 0.481 | 0.3 | 0.318 | 0.306 | 0.268 | 0.329 | 0.815 | 0.959 | 0.655 | 0.988 | 0.603 | 0.637 | – | 0.587 | 0.841 | 0.675
9 | NCI-H1437 | 0.479 | 0.441 | 0.451 | 0.427 | 0.477 | 0.289 | 0.23 | 0.145 | 0.143 | 0.154 | 1.15 | 1.1 | 1.04 | 1.17 | 0.533 | 0.557 | 0.53 | 0.616 | 1.14 | 0.492
10 | LU99A | 0.371 | 0.32 | 0.411 | 0.292 | 0.334 | 0.816 | 0.823 | 0.212 | 0.197 | 0.2 | 0.298 | 0.503 | 0.248 | 0.402 | 0.542 | 0.596 | 0.536 | 0.602 | 0.425 | 0.591
11 | HCC-827 | 0.954 | 1.03 | 0.98 | 0.929 | 1.08 | 0.421 | 0.377 | 0.43 | 0.241 | 0.157 | 0.203 | 0.243 | 0.129 | 0.259 | 0.491 | 0.556 | 0.633 | 0.565 | 0.2 | 0.557
12 | LK-2 | 0.582 | 0.567 | 0.636 | – | 0.582 | 0.473 | 0.362 | 0.165 | 0.15 | 0.163 | 0.42 | 0.439 | 0.323 | 0.379 | 0.65 | 0.584 | 0.609 | 0.69 | 0.367 | 0.767
13 | HCC-366 | 0.117 | 0.117 | 0.128 | 0.196 | 0.186 | 0.67 | 0.605 | 0.256 | 0.0215 | 0.0251 | 0.388 | 0.375 | 0.246 | 0.468 | 0.403 | 0.372 | 0.308 | 0.424 | 0.233 | 0.336
14 | BEN | 0.526 | 0.551 | 0.526 | 0.606 | 0.55 | 0.262 | 0.249 | 0.207 | 0.231 | 0.186 | 0.516 | 0.791 | 0.572 | 0.786 | 0.945 | 1.13 | 0.854 | 1.08 | 0.77 | 1.15
15 | NCI-H23 | 0.389 | 0.48 | – | 0.503 | 0.534 | 0.769 | 0.781 | 0.415 | 0.115 | 0.122 | 0.246 | 0.292 | 0.286 | 0.319 | 0.424 | 0.271 | 0.342 | 0.38 | 0.249 | 0.361
16 | NCI-H1395 | 0.615 | 0.645 | 0.627 | 0.632 | 0.628 | 0.439 | 0.444 | 0.293 | 0.279 | 0.316 | 0.341 | 0.4 | 0.396 | 0.387 | 1.01 | 1 | 1.07 | 1.06 | 0.388 | 1.09

From the supplement of paper PMC10307832
